From patent publication KR20230059409A, “Egf 유래 신규 펩타이드 및 이의 용도” (고려대학교 산학협력단, priority 2021, dated 2023)
No end group written: not given here.

Tests used:
인간유래 중간엽줄기세포(hMSC) = assay: 3D spheroid stem cell migration test (branch sprouting in collagen matrix); assay type: cell-based, human; conditions: peptide in DMEM 10uM / 100uM, 37℃, 16 h; for extent of stem cell branches extending from 3D spheroid (Fig. 2): compared with EGF group or DMEM only
hMSC = assay: 2D traction force microscope stem cell migration test; assay type: cell-based, human; conditions: 24 h imaging; for effect on stem cell mobility (conclusion of the test): hMSC

Substance	length of stem cell branches extending from 3D spheroid, quantified (Fig. 3) (인간유래 중간엽줄기세포(hMSC))	extent of stem cell branches extending from 3D spheroid (Fig. 2) (인간유래 중간엽줄기세포(hMSC))	stem cell migration speed (Fig. 7 and 8) (hMSC; hMSC on collagen-coated PA gel with fluorescent beads, compared among EGF, EGP 2, JEP 4 media)	effect on stem cell mobility (conclusion of the test) (hMSC)
NTKVGYIGEREQYRDLK-NH2 [EGP2]	줄기세포 가지가 상대적으로 긴 것으로 나타났다	줄기세포 가지가 가장 많이 뻗어나간 것을 확인	속도가 가장 빠른 것으로 나타났다	줄기세포의 이동성을 증진시키는 효과가 있음
YCLHDGVSMYIEALDKYACN [JEP4]	줄기세포 가지가 상대적으로 긴 것으로 나타났다	줄기세포 가지가 가장 많이 뻗어나간 것을 확인		줄기세포의 이동성을 증진시키는 효과가 있음
